From patent US20100022491A1, “4-HYDROXY-2-OXO-2,3-DIHYDRO-1,3-BENZOTHIAZOL-7YL COMPOUNDS FOR MODULATION OF B2-ADRENORECEPTOR ACTIVITY” (ASTRAZENECA AB, priority 2006, published 2010)
Where a name gives a salt, the structure may show the parent alone.

Target: T1, recombinant human α1D receptor (Homo sapiens, UniProt P25100)
T1 construct: expressed in transfected cells; host or cells: HEK293
T1 sequence (P25100 1-572): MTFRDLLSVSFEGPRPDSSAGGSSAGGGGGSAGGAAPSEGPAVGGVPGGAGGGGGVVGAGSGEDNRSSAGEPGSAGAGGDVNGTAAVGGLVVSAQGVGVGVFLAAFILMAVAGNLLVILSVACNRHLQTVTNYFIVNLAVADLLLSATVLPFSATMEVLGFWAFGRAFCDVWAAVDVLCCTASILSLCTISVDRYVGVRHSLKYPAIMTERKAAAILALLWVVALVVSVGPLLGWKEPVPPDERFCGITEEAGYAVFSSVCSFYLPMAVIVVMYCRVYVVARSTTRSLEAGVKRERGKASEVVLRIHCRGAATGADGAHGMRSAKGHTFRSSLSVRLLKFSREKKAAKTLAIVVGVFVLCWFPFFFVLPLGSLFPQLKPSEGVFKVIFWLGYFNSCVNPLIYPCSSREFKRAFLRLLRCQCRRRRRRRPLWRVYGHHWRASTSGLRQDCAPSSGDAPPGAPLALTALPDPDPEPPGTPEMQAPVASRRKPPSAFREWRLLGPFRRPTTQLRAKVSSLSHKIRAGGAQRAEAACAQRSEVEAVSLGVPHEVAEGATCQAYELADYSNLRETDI
Assay: Adrenergic α1D selectivity binding assay ([3H]-prazosin)
Conditions: inhibition of [3H]-prazosin (0.3 nM) binding, HEK293 membranes; read-out: α1 bind pIC50 (converted)
Protocol: Membranes were prepared from human embryonic kidney 293 (HEK293) cells expressing recombinant human α1D receptor. These were diluted in Assay Buffer (50 mM HEPES, 1 mM EDTA, 0.1% gelatin, pH 7.4) to provide a final concentration of membranes that gave a clear window between maximum and minimum specific binding.
Assays were performed in U-bottomed 96-well polypropylene plates. 10 μL [^3H]-prazosin (0.3 nM final concentration) and 10 μL of test compound (10× final concentration) were added to each test well. For each assay plate 8 replicates were obtained for [^3H]-prazosin binding in the presence of 10 μL vehicle (10% (v/v) DMSO in Assay Buffer; defining maximum binding) or 10 μL BMY7378 (10 μM final concentration; defining non-specific binding (NSB)). Membranes were then added to achieve a final volume of 100 μL. The plates were incubated for 2 hours at room temperature and then filtered onto PEI coated GF/B filter plates, pre-soaked for 1 hour in Assay Buffer, using a 96-well plate Tomtec cell harvester. Five washes with 250 μL wash buffer (50 mM HEPES, 1 mM EDTA, pH 7.4) were performed at 4° C. to remove unbound radioactivity. The plates were dried then sealed from underneath using Packard plate sealers and MicroScint-O (50 μL) was added to each well. The plates were sealed (TopSeal A) and filter-bound radioactivity was measured with a scintillation counter (TopCount, Packard BioScience) using a 3-minute counting protocol.
Total specific binding (B0) was determined by subtracting the mean NSB from the mean maximum binding. NSB values were also subtracted from values from all other wells. […] Data was fitted to a four parameter logistic equation to determine the compound potency, which was expressed as pIC50 (negative log molar concentration inducing 50% inhibition of [^3H]-prazosin binding).

SMILES: CCCC(CCC)N(CCNCCc1ccc(O)c2[nH]c(=O)sc12)C(=O)CCNCCc1ccc(F)cc1 [Example 64, N^3-[2-(4-Fluorophenyl)ethyl]-N^1-(2-{[2-(4-hydroxy-2-oxo-2,3-dihydro-1,3-benzothiazol-7-yl)ethyl]amino}ethyl)-N^1-(1-propylbutyl)-β-alaninamide bis-trifluoroacetic acid salt]
- IC50: 79.4 nM

SMILES: CC(C)(CO)CN(CCNCCc1ccc(O)c2[nH]c(=O)sc12)C(=O)CCNCCc1ccccc1Cl [Example 65, N^3-[2-(2-Chlorophenyl)ethyl]-N^1-(3-hydroxy-2,2-dimethylpropyl)-N^1-(2-{[2-(4-hydroxy-2-oxo-2,3-dihydro-1,3-benzothiazol-7-yl)ethyl]amino}ethyl)-β-alaninamide bis-trifluoroacetic acid salt]
- IC50: 100 nM

SMILES: CCCC[C@@H](C)N(CCNCCc1ccc(O)c2[nH]c(=O)sc12)C(=O)CCNCCc1ccccc1 [Example 101, N-(2-{[2-(4-Hydroxy-2-oxo-2,3-dihydro-1,3-benzothiazol-7-yl)ethyl]amino}ethyl)-N-[(1R)-1-methylpentyl]-N^3-(2-phenylethyl)-β-alaninamide bis-trifluoroacetic acid salt]
- IC50: 50.1 nM

SMILES: O=C(CCNCCc1cccc(Cl)c1)N(CCNCCc1ccc(O)c2[nH]c(=O)sc12)C1Cc2ccccc2C1 [Example 42, N^3-[2-(3-Chlorophenyl)ethyl]-N^1-(2,3-dihydro-1H-inden-2-yl)-N^1-(2-{[2-(4-hydroxy-2-oxo-2,3-dihydro-1,3-benzothiazol-7-yl)ethyl]amino}ethyl)-β-alaninamide bis-trifluoroacetic acid salt]
- IC50: 63.1 nM

SMILES: O=C(CCNCCc1ccc(Cl)cc1)N(CCNCCc1ccc(O)c2[nH]c(=O)sc12)C1CCCC1 [Example 28, N^3-[2-(4-Chlorophenyl)ethyl]-N-cyclopentyl-N-(2-{[2-(4-hydroxy-2-oxo-2,3-dihydro-1,3-benzothiazol-7-yl)ethyl]amino}ethyl)-β-alaninamide bis-trifluoroacetic acid salt]
- IC50: 316 nM

SMILES: O=C(CCNCCc1ccccc1)N(CCNCCc1ccc(O)c2[nH]c(=O)sc12)CC12CC3CC(CC(C3)C1)C2 [Example 59, N^1-(1-Adamantylmethyl)-N^1-(2-{[2-(4-hydroxy-2-oxo-2,3-dihydro-1,3-benzothiazol-7-yl)ethyl]amino}ethyl)-N^3-(2-phenylethyl)-β-alaninamide bis-trifluoroacetic acid salt]
- IC50: 100 nM

SMILES: O=C(CCNCCc1cccc(Cl)c1)N(CCNCCc1ccc(O)c2[nH]c(=O)sc12)C1CCCC1 [Example 30, N^3-[2-(3-Chlorophenyl)ethyl]-N-cyclopentyl-N-(2-{[2-(4-hydroxy-2-oxo-2,3-dihydro-1,3-benzothiazol-7-yl)ethyl]amino}ethyl)-β-alaninamide bis-trifluoroacetic acid salt]
- IC50: 200 nM

SMILES: O=C(CCNCCc1ccccc1)N(CCNCCc1ccc(O)c2[nH]c(=O)sc12)C1Cc2ccccc2C1 [Example 41, N^1-(2,3-Dihydro-1H-inden-2-yl)-N^1-(2-{[2-(4-hydroxy-2-oxo-2,3-dihydro-1,3-benzothiazol-7-yl)ethyl]amino}ethyl)-N^3-(2-phenylethyl)-β-alaninamide bis-trifluoroacetic acid salt]
- IC50: 12.6 nM

SMILES: C[C@H](CNCCC(=O)N(CCNCCc1ccc(O)c2[nH]c(=O)sc12)C1CCCC1)c1ccccc1 [Example 31, N-cyclopentyl-N-(2-{[2-(4-hydroxy-2-oxo-2,3-dihydro-1,3-benzothiazol-7-yl)ethyl]amino}ethyl)-N^3-[(2S)-2-phenylpropyl]-β-alaninamide bis-trifluoroacetic acid salt]
- IC50: 200 nM

SMILES: O=C(CCNCCc1cccc(F)c1F)N(CCNCCc1ccc(O)c2[nH]c(=O)sc12)C1CCCCC1 [Example 81, N^1-Cyclohexyl-N^3-[2-(2,3-difluorophenyl)ethyl]-N^1-(2-{[2-(4-hydroxy-2-oxo-2,3-dihydro-1,3-benzothiazol-7-yl)ethyl]amino}ethyl)-β-alaninamide bis-trifluoroacetic acid salt]
- IC50: 200 nM

SMILES: Cc1cccc(CCNCCC(=O)N(CCNCCc2ccc(O)c3[nH]c(=O)sc23)C2CCCCC2)c1 [Example 14, N-Cyclohexyl-N-(2-{[2-(4-hydroxy-2-oxo-2,3-dihydro-1,3-benzothiazol-7-yl)ethyl]amino}ethyl)-N^3-[2-(3-methylphenyl)ethyl]-β-alaninamide bis-trifluoroacetic acid salt]
- IC50: 158 nM

SMILES: O=C(CCNC[C@@H](O)c1ccccc1)N(CCNCCc1ccc(O)c2[nH]c(=O)sc12)C1CCCCC1 [Example 74, N^1-Cyclohexyl-N^1-(2-{[2-(4-hydroxy-2-oxo-2,3-dihydro-1,3-benzothiazol-7-yl)ethyl]amino}ethyl)-N^3-[(2S)-2-hydroxy-2-phenylethyl]-β-alaninamide bis-trifluoroacetic acid salt]
- IC50: 251 nM

SMILES: O=C(CCNCCc1cccc(F)c1)N(CCNCCc1ccc(O)c2[nH]c(=O)sc12)C1CCCCC1 [Example 96, N-Cyclohexyl-N^3-[2-(3-fluorophenyl)ethyl]-N-(2-{[2-(4-hydroxy-2-oxo-2,3-dihydro-1,3-benzothiazol-7-yl)ethyl]amino}ethyl)-β-alaninamide dihydrobromide salt]
- IC50: 200 nM

SMILES: O=C(CCNCCc1cc(F)cc(F)c1)N(CCNCCc1ccc(O)c2[nH]c(=O)sc12)C1CCCCC1 [Example 78, N^1-Cyclohexyl-N^3-[2-(3,5-difluorophenyl)ethyl]-N^1-(2-{[2-(4-hydroxy-2-oxo-2,3-dihydro-1,3-benzothiazol-7-yl)ethyl]amino}ethyl)-β-alaninamide bis-trifluoroacetic acid salt]
- IC50: 251 nM

SMILES: O=C(CCNCCc1ccc(Cl)cc1)N(CCNCCc1ccc(O)c2[nH]c(=O)sc12)C1CCCCC1 [Example 13, N^3-[2-(4-Chlorophenyl)ethyl]-N-cyclohexyl-N-(2-{[2-(4-hydroxy-2-oxo-2,3-dihydro-1,3-benzothiazol-7-yl)ethyl]amino}ethyl)-β-alaninamide bis-trifluoroacetic acid salt]
- IC50: 316 nM

SMILES: O=C(CCNCCc1cccc(Cl)c1)N(CCNCCc1ccc(O)c2[nH]c(=O)sc12)C1CCOCC1 [Example 22, N^3-[2-(3-Chlorophenyl)ethyl]-N-(2-{[2-(4-hydroxy-2-oxo-2,3-dihydro-1,3-benzothiazol-7-yl)ethyl]amino}ethyl)-N-(tetrahydro-2H-pyran-4-yl)-β-alaninamide bis-trifluoroacetic acid salt]
- IC50: 251 nM

SMILES: O=C(CCNCCc1ccccc1)N(CCNCCc1ccc(O)c2[nH]c(=O)sc12)C1CCCC1 [Example 2, N-Cyclopentyl-N-(2-{[2-(4-hydroxy-2-oxo-2,3-dihydro-1,3-benzothiazol-7-yl)ethyl]amino}ethyl)-N^3-(2-phenylethyl)-β-alaninamide bis-trifluoroacetic acid salt]
- IC50: 126 nM

SMILES: O=C(CCNCCc1cccc(Cl)c1)N(CCNCCc1ccc(O)c2[nH]c(=O)sc12)C1CCCCC1 [Example 12, N^3-[2-(3-Chlorophenyl)ethyl]-N-cyclohexyl-N-(2-{[2-(4-hydroxy-2-oxo-2,3-dihydro-1,3-benzothiazol-7-yl)ethyl]amino}ethyl)-β-alaninamide bis-trifluoroacetic acid salt]
- IC50: 200 nM

SMILES: CC(C)(CO)CN(CCNCCc1ccc(O)c2[nH]c(=O)sc12)C(=O)CCNCCc1cccc(Cl)c1 [Example 66, N^3-[2-(3-Chlorophenyl)ethyl]-N^1-(3-hydroxy-2,2-dimethylpropyl)-N^1-(2-{[2-(4-hydroxy-2-oxo-2,3-dihydro-1,3-benzothiazol-7-yl)ethyl]amino}ethyl)-β-alaninamide bis-trifluoroacetic acid salt]
- IC50: 251 nM

SMILES: O=C(CCNCCc1cccc(O)c1)N(CCNCCc1ccc(O)c2[nH]c(=O)sc12)C1CCCCC1 [Example 71, N^1-Cyclohexyl-N^1-(2-{[2-(4-hydroxy-2-oxo-2,3-dihydro-1,3-benzothiazol-7-yl)ethyl]amino}ethyl)-N^3-[2-(3-hydroxyphenyl)ethyl]-β-alaninamide bis-trifluoroacetic acid salt]
- IC50: 200 nM
